Results reported in patent publication US4622389A, “Novel substrate for determining the activity of blood coagulation factor Xa (Stuart-Prower factor)” (Nitto Poseki Co., Ltd., priority 1984, dated 1986).
Residues, ends and D or L forms follow the SMILES beside them. *: point of attachment. pNA = O=[N+]([O-])c1ccc(N*)cc1; Bz = O=C(c1ccccc1)*

Key:
thrombin (TH) = target: T1, thrombin (TH) (Bos taurus, UniProt P00735); experiment: Substrate specificity test: reaction of substrates with thrombin; type: biochemical, Bovine; conditions: for absorbance (O.D.), TH: So = 0.4 mM/l, 5 min reaction at 37° C.
T1 construct: proteolyze factor II (prothrombin) at two points of peptide chain to turn it into factor IIa (thrombin); purchased Mochida Pharmaceutical Co., Ltd., Japan
Procedure: (§1) The specificities of newly synthesized substrates were tested by reacting them with various enzymes as follows.
(§2) (1) Substrate solution: 2 mM/liter of H2 O
(§3) (2) Buffer solutions: The concentrations of each of tris(hydroxymethyl)aminomethane [hereinafter referred to as "Tris"], NaCl and CaCl2, as well as pH were specified as follows for the respective enzymes. […]
(§4) (4) Reaction Stopper (PNA): 10%-acetic acid
(§5) (5) Color forming agent (CHA): Pentacyanoamineferroate
(§6) (6) Method of determination:
(§7) 0.3 Milliter buffer solution and 0.1 ml of enzyme reagent were collected in a hard glass test tube of which surface being treated with silicone, or a plastic test tube and preheated in a thermostat at 37° C. for 5 minutes. Precisely 5 minutes after the reaction was started, 2.0 ml of reaction stopper solution or reactionterminating color forming reagent was added to terminate the enzyme reaction. The reaction mixture was allowed to stand at 37° C. for 10 minutes and then the adsorbance at 405 nm or 700 nm was measured.

factor Xa (FXa) = target: T2, factor Xa (FXa) (Homo sapiens, UniProt P00742); experiment: Substrate specificity test: reaction of substrates with FXa, absorbance of liberated chromogen; type: biochemical; conditions: for absorbance (O.D.), FXa: So = 0.4 mM/l, 5 min reaction at 37° C.
T2 construct: purchased Bohringer Mannheim, GmbH, West Germany
Procedure: as §1, §2, §3, §4, §5, §6, §7

plasmin (PL) = target: T3, plasmin (PL) (Homo sapiens, UniProt P00747); experiment: Substrate specificity test: reaction of substrates with plasmin; type: biochemical; conditions: for absorbance (O.D.), PL: So = 0.4 mM/l, 5 min reaction at 37° C.
T3 construct: Plasmin Human; purchased The Green Cross Corporation, Japan
Procedure: as §1, §2, §3, §4, §5, §6, §7

kallikrein (KL) = target: T4, kallikrein (KL) (Sus scrofa, UniProt P00752); experiment: Substrate specificity test: reaction of substrates with kallikrein; type: biochemical, Swine; conditions: So = 0.4 mM/l, 5 min reaction at 37° C.
T4 construct: purchased Sigma Chemical Co., U.S.A
Procedure: as §1, §2, §3, §4, §5, §6, §7

urokinase (UK) = target: T5, urokinase (UK) (Homo sapiens, UniProt P00749); experiment: Substrate specificity test: reaction of substrates with urokinase; type: biochemical; conditions: for absorbance (O.D.), UK: So = 0.4 mM/l, 5 min reaction at 37° C.
T5 construct: purchased Mochida Pharmaceutical Co., Ltd., Japan
Procedure: as §1, §2, §3, §4, §5, §6, §7

Solubility in water = type: physicochemical
[1] = PS-2000N given as 100, initial substrate concentration So = 0.4 mmol
[2] = 700 nm (CHA substrates, pentacyanoamineferroate)

T2 sequence (P00742 235-488 limits assumed): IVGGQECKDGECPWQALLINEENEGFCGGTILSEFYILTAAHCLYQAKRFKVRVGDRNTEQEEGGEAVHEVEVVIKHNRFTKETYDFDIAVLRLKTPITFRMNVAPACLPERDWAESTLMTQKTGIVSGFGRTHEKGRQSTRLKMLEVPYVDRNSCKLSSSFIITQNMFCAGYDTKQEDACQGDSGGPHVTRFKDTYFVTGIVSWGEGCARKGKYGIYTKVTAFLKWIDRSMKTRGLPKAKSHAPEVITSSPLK
T2 sequence (P00742 41-179 partner limits assumed): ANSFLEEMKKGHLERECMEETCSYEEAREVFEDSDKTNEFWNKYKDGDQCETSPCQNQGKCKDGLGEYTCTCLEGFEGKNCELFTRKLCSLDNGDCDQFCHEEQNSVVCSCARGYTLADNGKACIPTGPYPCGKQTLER
T4 sequence (P00752 8-246): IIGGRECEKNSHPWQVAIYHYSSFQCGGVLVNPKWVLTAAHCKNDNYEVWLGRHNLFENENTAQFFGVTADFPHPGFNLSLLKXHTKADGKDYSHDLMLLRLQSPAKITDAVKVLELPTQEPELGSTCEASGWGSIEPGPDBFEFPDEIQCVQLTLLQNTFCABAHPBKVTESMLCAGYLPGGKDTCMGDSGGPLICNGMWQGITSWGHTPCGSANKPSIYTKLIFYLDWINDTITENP
T3 sequence (P00747 581-810 limits assumed): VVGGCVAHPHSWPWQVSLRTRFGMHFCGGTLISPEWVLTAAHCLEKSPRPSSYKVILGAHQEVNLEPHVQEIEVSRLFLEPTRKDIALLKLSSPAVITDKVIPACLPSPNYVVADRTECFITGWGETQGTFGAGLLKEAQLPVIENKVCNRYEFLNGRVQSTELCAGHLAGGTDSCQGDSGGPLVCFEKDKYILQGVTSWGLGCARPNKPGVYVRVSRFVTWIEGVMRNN
T3 sequence (P00747 97-580 partner limits assumed): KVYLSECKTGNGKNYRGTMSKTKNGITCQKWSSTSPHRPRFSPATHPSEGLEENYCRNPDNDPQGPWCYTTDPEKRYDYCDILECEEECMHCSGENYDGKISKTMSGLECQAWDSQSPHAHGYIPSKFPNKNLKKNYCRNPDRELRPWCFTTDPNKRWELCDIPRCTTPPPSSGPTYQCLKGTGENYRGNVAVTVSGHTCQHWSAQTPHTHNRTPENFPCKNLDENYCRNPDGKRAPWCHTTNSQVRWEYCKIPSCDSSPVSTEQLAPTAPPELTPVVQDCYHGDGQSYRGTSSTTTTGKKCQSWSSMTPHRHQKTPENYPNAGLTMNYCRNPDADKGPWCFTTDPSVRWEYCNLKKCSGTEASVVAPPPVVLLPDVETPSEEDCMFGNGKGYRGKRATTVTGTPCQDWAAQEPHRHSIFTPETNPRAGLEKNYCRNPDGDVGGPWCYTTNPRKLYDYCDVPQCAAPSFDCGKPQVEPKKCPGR

| SMILES | absorbance (O.D.), TH (thrombin (TH); [2]) | absorbance (O.D.), FXa (factor Xa (FXa); [2]) | absorbance (O.D.), PL (plasmin (PL); [2]) | absorbance (O.D.), KL (kallikrein (KL); [2]) | absorbance (O.D.), UK (urokinase (UK); [2]) | other results |
| --- | --- | --- | --- | --- | --- | --- |
| CC[C@H](C)[C@H](NC(=O)c1ccccc1)C(=O)N[C@@H](CCC(=O)O)C(=O)NCC(=O)N[C@@H](CCCNC(=N)N)C(=O)Nc1ccc([N+](=O)[O-])cc1 [S-2222, Bz-Ile-Glu-Gly-Arg-PNA, reference compound] (Bz-IEGR-pNA) | – | – | – | – | – | absorbance (O.D.), TH (thrombin (TH); 405 nm (PNA substrates)): 0.018 O.D.; Relative reactivity to enzymes, TH (thrombin (TH); [1]): 31%; absorbance (O.D.), FXa (factor Xa (FXa); 405 nm (PNA substrates)): 0.669 O.D.; Relative reactivity to enzymes, Fxa (factor Xa (FXa); [1]): 57%; absorbance (O.D.), PL (plasmin (PL); 405 nm (PNA substrates)): 0.011 O.D.; Relative reactivity to enzymes, PL (plasmin (PL); [1]): 16%; absorbance (O.D.), KL (kallikrein (KL); 405 nm (PNA substrates)): 0.013 O.D.; absorbance (O.D.), UK (urokinase (UK); 405 nm (PNA substrates)): 0.035 O.D.; Relative reactivity to enzymes, UK (urokinase (UK); [1]): 40% |
| N=C(N)NCCC[C@H](NC(=O)CNC(=O)[C@@H](CCCCN)NC(=O)OCc1ccccc1)C(=O)Nc1ccc(O)c(C(=O)O)c1 [PS-2001, ZD-LysGlyArgCHA] | 0.006 O.D. | 0.314 O.D. | 0.005 O.D. | 0.0 O.D. | 0.004 O.D. | – |
| CC[C@H](C)[C@H](NC(=O)c1ccccc1)C(=O)N[C@@H](CCC(=O)O)C(=O)NCC(=O)N[C@@H](CCCN=C(N)N)C(=O)Nc1ccc([N+](=O)[O-])cc1 [S-2222, Bz-Ile-Glu-Gly-Arg-PNA, reference compound] (Bz-IEGR-pNA) | – | – | – | – | – | water solubility (Solubility in water): about 6 mmol/1 |
| CN(CC(=O)N[C@@H](CCCNC(=N)N)C(=O)Nc1ccc(O)c(C(=O)O)c1)C(=O)[C@@H](CCCCN)NC(=O)OCc1ccccc1 [PS-2004, ZD-LysSarArgCHA] | 0.006 O.D. | 0.292 O.D. | 0.0 O.D. | 0.0 O.D. | 0.0 O.D. | – |
| CC(=O)NCCCC[C@@H](NC(=O)OCc1ccccc1)C(=O)NCC(=O)N[C@@H](CCCNC(=N)N)C(=O)Nc1ccc(O)c(C(=O)O)c1 [PS-2002, ZD-Lys(Ac)GlyArgCHA] | 0.009 O.D. | 0.426 O.D. | 0.004 O.D. | 0.0 O.D. | 0.003 O.D. | – |
